ChEMBL document CHEMBL4814047, “Design, synthesis and biological activity of N-(amino)piperazine-containing benzothiazinones against Mycobacterium tuberculosis” (Eur J Med Chem, 2021)
≈ marks a conversion by molar mass, not a printed value.

Key:
[1] = system: Mycobacterium tuberculosis; test: Antimycobacterial activity against Mycobacterium tuberculosis H37Rv ATCC 27294 incubated for 7 days by microplate alamar blue assay; assay type: functional; details: H37Rv ATCC 27294, 168 h, time 7 day
[2] = Cytotoxicity against African green monkey Vero cells incubated for 72 hrs by MTT assay; assay type: cell-based; details: chlorocebus sabaeus
hERG (KCNH2) = hERG (KCNH2) (Homo sapiens, UniProt Q12809); test: Inhibition of human ERG expressed in HEK293 cells at 10 uM by whole cell patch clamp method relative to control; assay type: cell-based; details: HEK293 cells expressing hERG
Sequence of hERG (KCNH2) (Q12809 whole entry): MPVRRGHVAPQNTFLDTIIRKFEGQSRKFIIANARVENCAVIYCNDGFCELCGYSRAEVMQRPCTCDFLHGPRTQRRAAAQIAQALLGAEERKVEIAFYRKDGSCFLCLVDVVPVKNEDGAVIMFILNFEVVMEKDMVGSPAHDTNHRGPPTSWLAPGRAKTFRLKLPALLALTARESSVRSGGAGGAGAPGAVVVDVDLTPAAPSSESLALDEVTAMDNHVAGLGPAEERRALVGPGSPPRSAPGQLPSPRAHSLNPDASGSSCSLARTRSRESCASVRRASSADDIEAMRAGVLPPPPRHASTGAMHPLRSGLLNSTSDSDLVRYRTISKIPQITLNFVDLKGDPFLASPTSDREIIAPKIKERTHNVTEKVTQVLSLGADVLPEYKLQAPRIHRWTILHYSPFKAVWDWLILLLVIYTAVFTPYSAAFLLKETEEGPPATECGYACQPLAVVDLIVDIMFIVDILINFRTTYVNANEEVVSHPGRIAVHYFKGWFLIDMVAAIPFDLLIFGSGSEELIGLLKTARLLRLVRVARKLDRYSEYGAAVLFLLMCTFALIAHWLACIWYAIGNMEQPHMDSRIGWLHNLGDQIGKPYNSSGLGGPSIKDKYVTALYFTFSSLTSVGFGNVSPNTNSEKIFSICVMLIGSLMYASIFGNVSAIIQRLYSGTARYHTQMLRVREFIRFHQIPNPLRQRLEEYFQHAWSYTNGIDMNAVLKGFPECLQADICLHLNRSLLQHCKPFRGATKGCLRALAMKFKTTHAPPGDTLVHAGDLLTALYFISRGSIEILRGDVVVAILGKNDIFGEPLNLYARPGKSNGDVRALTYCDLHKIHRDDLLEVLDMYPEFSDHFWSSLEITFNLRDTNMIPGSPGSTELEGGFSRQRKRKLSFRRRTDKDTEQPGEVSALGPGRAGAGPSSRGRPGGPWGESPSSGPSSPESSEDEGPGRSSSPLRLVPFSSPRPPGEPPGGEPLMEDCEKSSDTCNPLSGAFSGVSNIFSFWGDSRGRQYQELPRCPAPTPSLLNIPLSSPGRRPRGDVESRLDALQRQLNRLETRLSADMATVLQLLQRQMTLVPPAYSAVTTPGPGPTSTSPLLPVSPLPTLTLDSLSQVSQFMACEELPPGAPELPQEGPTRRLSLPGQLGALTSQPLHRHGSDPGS

[3] = Half life in ICR mouse at 25 mg/kg, po measured upto 24 hrs by HPLC analysis; assay type: ADME, organism-based; details: in vivo
[4] = Tmax in ICR mouse at 25 mg/kg, po measured upto 24 hrs by HPLC analysis; assay type: ADME, organism-based; details: in vivo
[5] = Cmax in ICR mouse at 25 mg/kg, po measured upto 24 hrs by HPLC analysis; assay type: ADME, organism-based; design: route oral, dose 25 mg/kg, time <=24; details: in vivo
[6] = AUC (0 to infinity) in ICR mouse at 25 mg/kg, po measured upto 24 hrs by HPLC analysis; assay type: ADME, organism-based; design: route oral, dose 25 mg/kg, time <=24; details: in vivo
[7] = MRT in ICR mouse at 25 mg/kg, po measured upto 24 hrs by HPLC analysis; assay type: ADME, organism-based; details: in vivo

## CN(CC1CCCCC1)N1CCN(c2nc(=O)c3cc(C(F)(F)F)cc([N+](=O)[O-])c3s2)CC1
[1]
  MIC: < 0.016 µg/mL
[2]
  CC50 at 72 h: > 64 µg/mL
hERG (KCNH2)
  inhibition at 10 µM: 54.6%

## CC(C)CN(CC(C)C)N1CCN(c2nc(=O)c3cc(C(F)(F)F)cc([N+](=O)[O-])c3s2)CC1
[1]
  MIC: < 0.016 µg/mL
[2]
  CC50 at 72 h: > 64 µg/mL

## CC(c1ccc(OC(F)(F)F)cc1)N(C)N1CCN(c2nc(=O)c3cc(C(F)(F)F)cc([N+](=O)[O-])c3s2)CC1 (stereo unspecified)
[1]
  MIC: < 0.016 µg/mL
[2]
  CC50 at 72 h: > 64 µg/mL
hERG (KCNH2)
  inhibition at 10 µM: 46.9%
[3]
  half-life: 3.89 h
[4]
  Tmax: 0.833 h
[5]
  Cmax: 944 ng/mL
[6]
  AUC(0-inf): 2870 ng·h/mL
[7]
  MRT: 2.66 h

## O=c1nc(N2CCN(N(CC3CCCC3)CC3CCCC3)CC2)sc2c([N+](=O)[O-])cc(C(F)(F)F)cc12
[1]
  MIC: 0.0803 µg/mL (≈ 0.149 µM)

## CON=C1CCC(CNN2CCN(c3nc(=O)c4cc(C(F)(F)F)cc([N+](=O)[O-])c4s3)CC2)CC1 (stereo unspecified)
[1]
  MIC: 0.057 µg/mL (≈ 0.111 µM)

## O=C(C1CCCCC1)N1CCN(Nc2nc(=O)c3cc(C(F)(F)F)cc([N+](=O)[O-])c3s2)CC1
[1]
  MIC: > 1 µg/mL

## O=c1nc(N2CCN(NCc3ccc(OC(F)(F)F)cc3)CC2)sc2c([N+](=O)[O-])cc(C(F)(F)F)cc12
[1]
  MIC: < 0.016 µg/mL
[2]
  CC50 at 72 h: > 64 µg/mL
hERG (KCNH2)
  inhibition at 10 µM: 71.1%

## O=c1nc(N2CCN(NCc3cccnc3)CC2)sc2c([N+](=O)[O-])cc(C(F)(F)F)cc12
[1]
  MIC: 0.228 µg/mL (≈ 0.489 µM)

## O=c1nc(NN2CCN(Cc3ccc(OC(F)(F)F)cc3)CC2)sc2c([N+](=O)[O-])cc(C(F)(F)F)cc12
[1]
  MIC: > 1 µg/mL

## NN1CCN(c2nc(=O)c3cc(C(F)(F)F)cc([N+](=O)[O-])c3s2)CC1
[1]
  MIC: 0.941 µg/mL (≈ 2.51 µM)

## CC(C)CNN1CCN(c2nc(=O)c3cc(C(F)(F)F)cc([N+](=O)[O-])c3s2)CC1
[1]
  MIC: 0.0281 µg/mL (≈ 0.0651 µM)

## O=C(NN1CCN(c2nc(=O)c3cc(C(F)(F)F)cc([N+](=O)[O-])c3s2)CC1)c1ccc(C(F)(F)F)cc1
[1]
  MIC: 0.589 µg/mL (≈ 1.08 µM)

## O=c1nc(NN2CCN(CC3CCCCC3)CC2)sc2c([N+](=O)[O-])cc(C(F)(F)F)cc12
[1]
  MIC: > 1 µg/mL

## CCC(CC)CN(CC(CC)CC)N1CCN(c2nc(=O)c3cc(C(F)(F)F)cc([N+](=O)[O-])c3s2)CC1
[1]
  MIC: 0.49 µg/mL (≈ 0.902 µM)

## NNC(=O)c1ccncc1 [ISONIAZID]
[1]
  MIC: 0.0366 µg/mL (≈ 0.267 µM)

## O=c1nc(N2CCN(NS(=O)(=O)C3CCCCC3)CC2)sc2c([N+](=O)[O-])cc(C(F)(F)F)cc12
[1]
  MIC: > 1 µg/mL

## O=c1nc(N2CCN(NCc3ccc(C(F)(F)F)cc3)CC2)sc2c([N+](=O)[O-])cc(C(F)(F)F)cc12
[1]
  MIC: < 0.016 µg/mL
[2]
  CC50 at 72 h: > 64 µg/mL

## O=c1nc(N2CCN(NCc3ccc(Br)cc3)CC2)sc2c([N+](=O)[O-])cc(C(F)(F)F)cc12
[1]
  MIC: < 0.016 µg/mL
[2]
  CC50 at 72 h: > 64 µg/mL

## O=c1nc(N2CCN(NCc3ccc(F)cc3)CC2)sc2c([N+](=O)[O-])cc(C(F)(F)F)cc12
[1]
  MIC: < 0.016 µg/mL
[2]
  CC50 at 72 h: > 64 µg/mL

## CC(NN1CCN(c2nc(=O)c3cc(C(F)(F)F)cc([N+](=O)[O-])c3s2)CC1)c1ccc(OC(F)(F)F)cc1 (stereo unspecified)
[1]
  MIC: < 0.016 µg/mL
[2]
  CC50 at 72 h: > 64 µg/mL

## O=c1nc(N2CCN(CC3CCCCC3)CC2)sc2c([N+](=O)[O-])cc(C(F)(F)F)cc12 [MACOZINONE]
[1]
  MIC: < 0.016 µg/mL
[2]
  CC50 at 72 h: > 64 µg/mL

## COc1ccc(CNN2CCN(c3nc(=O)c4cc(C(F)(F)F)cc([N+](=O)[O-])c4s3)CC2)cc1
[1]
  MIC: < 0.016 µg/mL
[2]
  CC50 at 72 h: > 64 µg/mL

## Cc1ccc(CNN2CCN(c3nc(=O)c4cc(C(F)(F)F)cc([N+](=O)[O-])c4s3)CC2)cc1
[1]
  MIC: < 0.016 µg/mL
[2]
  CC50 at 72 h: > 64 µg/mL

## CC(C)(C)c1ccc(CNN2CCN(c3nc(=O)c4cc(C(F)(F)F)cc([N+](=O)[O-])c4s3)CC2)cc1
[1]
  MIC: < 0.016 µg/mL
[2]
  CC50 at 72 h: > 64 µg/mL

## O=c1nc(N2CCN(Nc3ccc(OC(F)(F)F)cc3)CC2)sc2c([N+](=O)[O-])cc(C(F)(F)F)cc12
[1]
  MIC: < 0.016 µg/mL
[2]
  CC50 at 72 h: > 64 µg/mL
hERG (KCNH2)
  inhibition at 10 µM: 55.5%

## O=c1nc(NN2CCN(Cc3ccncc3)CC2)sc2c([N+](=O)[O-])cc(C(F)(F)F)cc12
[1]
  MIC: > 1 µg/mL

## O=c1nc(N2CCN(NCC3CCCC3)CC2)sc2c([N+](=O)[O-])cc(C(F)(F)F)cc12
[1]
  MIC: < 0.016 µg/mL
[2]
  CC50 at 72 h: > 64 µg/mL

## C/C(=N\N1CCN(c2nc(=O)c3cc(C(F)(F)F)cc([N+](=O)[O-])c3s2)CC1)c1ccc(OC(F)(F)F)cc1
[1]
  MIC: < 0.016 µg/mL
[2]
  CC50 at 72 h: > 64 µg/mL

## O=c1nc(N2CCN(Nc3ccc(C(F)(F)F)cc3)CC2)sc2c([N+](=O)[O-])cc(C(F)(F)F)cc12
[1]
  MIC: < 0.016 µg/mL
[2]
  CC50 at 72 h: > 64 µg/mL

## O=c1nc(N2CCN(NCCC3CCCCC3)CC2)sc2c([N+](=O)[O-])cc(C(F)(F)F)cc12
[1]
  MIC: < 0.016 µg/mL
[2]
  CC50 at 72 h: > 64 µg/mL
hERG (KCNH2)
  inhibition at 10 µM: 76.4%

## CON=C1CCC(NN2CCN(c3nc(=O)c4cc(C(F)(F)F)cc([N+](=O)[O-])c4s3)CC2)CC1 (stereo unspecified)
[1]
  MIC: 0.028 µg/mL (≈ 0.0559 µM)

## CO[C@H]1/C=C/O[C@@]2(C)Oc3c(C)c(O)c4c(O)c(c(/C=N/N5CCN(C)CC5)c(O)c4c3C2=O)NC(=O)/C(C)=C\C=C\[C@H](C)[C@H](O)[C@@H](C)[C@@H](O)[C@@H](C)[C@H](OC(C)=O)[C@@H]1C [RIFAMPIN]
[1]
  MIC: 0.0382 µg/mL (≈ 0.0464 µM)

## O=C(NN1CCN(c2nc(=O)c3cc(C(F)(F)F)cc([N+](=O)[O-])c3s2)CC1)C1CCCCC1
[1]
  MIC: 0.473 µg/mL (≈ 0.974 µM)

## CON=C1CCC(CN(C)N2CCN(c3nc(=O)c4cc(C(F)(F)F)cc([N+](=O)[O-])c4s3)CC2)CC1 (stereo unspecified)
[1]
  MIC: 0.025 µg/mL (≈ 0.0473 µM)

## O=C(NN1CCN(c2nc(=O)c3cc(C(F)(F)F)cc([N+](=O)[O-])c3s2)CC1)c1ccc(OC(F)(F)F)cc1
[1]
  MIC: 0.965 µg/mL (≈ 1.71 µM)

## O=c1nc(N2CCN(NCC3CCCCC3)CC2)sc2c([N+](=O)[O-])cc(C(F)(F)F)cc12
[1]
  MIC: < 0.016 µg/mL
[2]
  CC50 at 72 h: 29.3 µg/mL (≈ 62.1 µM)
hERG (KCNH2)
  inhibition at 10 µM: 64.4%

## CON=C1CCC(N(C)N2CCN(c3nc(=O)c4cc(C(F)(F)F)cc([N+](=O)[O-])c4s3)CC2)CC1 (stereo unspecified)
[1]
  MIC: < 0.016 µg/mL
[2]
  CC50 at 72 h: > 64 µg/mL
hERG (KCNH2)
  inhibition at 10 µM: 22.7%
[3]
  half-life: 4.09 h
[4]
  Tmax: 0.5 h
[5]
  Cmax: 5140 ng/mL
[6]
  AUC(0-inf): 15800 ng·h/mL
[7]
  MRT: 3.89 h

## Cc1cccc(F)c1CNN1CCN(c2nc(=O)c3cc(C(F)(F)F)cc([N+](=O)[O-])c3s2)CC1
[1]
  MIC: < 0.016 µg/mL
[2]
  CC50 at 72 h: > 64 µg/mL

## O=c1nc(N2CCN(NCc3cccc(C(F)(F)F)c3)CC2)sc2c([N+](=O)[O-])cc(C(F)(F)F)cc12
[1]
  MIC: < 0.016 µg/mL
[2]
  CC50 at 72 h: > 64 µg/mL

## O=c1nc(N2CCN(/N=C/c3ccc(OC(F)(F)F)cc3)CC2)sc2c([N+](=O)[O-])cc(C(F)(F)F)cc12
[1]
  MIC: < 0.016 µg/mL
[2]
  CC50 at 72 h: > 64 µg/mL
hERG (KCNH2)
  inhibition at 10 µM: 88.2%

## O=c1nc(N2CCN(NCc3ccc(Cl)cc3)CC2)sc2c([N+](=O)[O-])cc(C(F)(F)F)cc12
[1]
  MIC: < 0.016 µg/mL
[2]
  CC50 at 72 h: > 64 µg/mL

## O=c1nc(N2CCN(NCc3ccc(O)cc3)CC2)sc2c([N+](=O)[O-])cc(C(F)(F)F)cc12
[1]
  MIC: 0.9 µg/mL (≈ 1.87 µM)

## O=c1nc(N2CCN(NCc3cc(F)cc(F)c3)CC2)sc2c([N+](=O)[O-])cc(C(F)(F)F)cc12
[1]
  MIC: < 0.016 µg/mL
[2]
  CC50 at 72 h: > 64 µg/mL

## O=c1nc(N2CCN(NC3CCCCC3)CC2)sc2c([N+](=O)[O-])cc(C(F)(F)F)cc12
[1]
  MIC: < 0.016 µg/mL
[2]
  CC50 at 72 h: > 64 µg/mL
hERG (KCNH2)
  inhibition at 10 µM: 20.4%
[3]
  half-life: 1.28 h
[4]
  Tmax: 0.583 h
[5]
  Cmax: 1960 ng/mL
[6]
  AUC(0-inf): 4430 ng·h/mL
[7]
  MRT: 1.47 h

## CN(c1ccc(OC(F)(F)F)cc1)N1CCN(c2nc(=O)c3cc(C(F)(F)F)cc([N+](=O)[O-])c3s2)CC1
[1]
  MIC: < 0.016 µg/mL
[2]
  CC50 at 72 h: > 64 µg/mL
hERG (KCNH2)
  inhibition at 10 µM: 45.6%
[3]
  half-life: 3.6 h
[4]
  Tmax: 0.667 h
[5]
  Cmax: 1100 ng/mL
[6]
  AUC(0-inf): 4700 ng·h/mL
[7]
  MRT: 4.34 h
